# According to patent US6034246A, “2-arylbenzazole compounds” (Cancer Research Campaign Technology Limited, priority 1995, dated 2000):
# Assays:
# [1] = tested on: OVCAR-5; assay: in vitro activity against human ovarian cell line OVCAR-5 (Table 2); format: cell-based
# Source text: (§1) Tables 1 to 4 at the end of the present description show in vitro test results obtained in various sets of experiments for the cytotoxic activity of several of the benzazole compounds concerned, including also for reference results for the compound CJM 126 and comparative results for compound DF129, when tested against a range of tumor cell lines which includes ovarian, lung and certain colon and renal cancer cells from the National Cancer Institute (USA) collection. As usual the results are expressed in terms of IS50 values (concentration or dosage required to reduce cell growth or proliferation by 50%) calculated from dose-effect curves plotted for cultures of the cells in question.
# In carrying out the in vitro studies, the cytotoxicity assays may be carried out by a method corresponding substantially to the following example: […]
# (§2) On day 7 the test was terminated by the addition of 100 μl saline containing 0.002% w/v propidium iodide (Sigma), 0.3% drawing ink (Staedtler "Marsmatic 745"--Trade Mark) and 0.5% Triton X-100. The plates were kept at 4° C. overnight before reading on an inverted microscope equipped with an automated scanning stage. Fluorescence intensity was measured in arbitrary units by a photomultiplier. […]
# [2] = tested on: MCF-7B; assay: in vitro inhibitory activity against human breast tumour cell line MCF-7B (Table 4); format: cell-based; conditions: initial seeding density 2.5 × 10^2 cells/well
# Source text: as §1
# In carrying out the in vitro studies, the cytotoxicity assays may be carried out by a method corresponding substantially to the following example:
# Cells were maintained in a continuous logarithmic culture in Dublecco's medium supplemented with 10% fetal calf serum and penicillin (100 IU/ml) and streptomycin ([…]). The cells were mildly trypsinized for passage and for use in assays. On day zero, 100 μl of trypsinized tumor cells (1×10^4 /ml) were plated in the wells of 96-well flat-bottom microtiter plates. The plates were incubated for 2 days at 37° C. and 5% CO2 in air to allow the cells to adhere and resume exponential growth prior to the addition of drugs.
# On day two 50 μl of the highest drug concentration was added to the wells of column 12 and from there serially diluted 3-fold to column 1 by serial transfer of 50 μl using an 8-channel micropipette. The final volume of column 1 was adjusted to 100 μl. No additions were made to the wells of rows A and B, which served as controls. […]
# as §2
IC50 [1] [nM],SMILES,IC50 [2] [nM]
300,"Nc1ccc(-c2nc3ccccc3s2)cc1I [DF129, 2-(4'-amino-3'-iodophenyl)benzothiazole]",–
–,"Cc1cc(-c2nc3ccccc3s2)ccc1N [DF203, 2-(4'-amino-3'-methylphenyl)benzothiazole]",10
